Measurements reported in patent US7741245B2, “Method for treating plants or plant parts” (Rohm and Haas Company, priority 2004, dated 2010).

Tested on: Patio variety tomato seedlings
Test: Tomato Epinasty Test
Assay type: in vivo
Details: 1000 ppm v/v OCPO in air of sealed chamber; ethylene 10 ppm v/v injected four hours later; scored sixteen hours later
Experimental: The biological activity of OCPO was assessed with the Tomato Epinasty Test. Epinasty is downward bending of leaves. The test was performed as follows. Test plants are Patio variety tomato seedlings planted two plants per three inch square plastic pot. Volatile gas treatment entailed placing two pots of Patio variety tomatoes into a polystyrene 4.8 L volume treatment chamber along with one-half (upper or lower section) of a 50×9 mm plastic Petri dish containing a Gelman filter pad. OCPO, dissolved in 1.0 ml acetone, was pipetted onto the filter pad and the chamber was immediately sealed. The amount of OCPO was calculated to give concentration of 1000 ppm v/v of OCPO in the air of the sealed chamber. Four hours later ethylene gas was injected into the sealed chamber in an amount to give concentration of ethylene of 10 ppm v/v final concentration in the sealed chamber. Sixteen hours later the chambers were opened in an exhaust hood, allowed to air, and the plants scored visually for the degree of protection against ethylene-induced epinasty conferred by the experimental compound when compared to untreated controls on a scale of 0 to 10. A rating of 10 means complete protection. A rating of 0 means no protection from the effects of ethylene.

CCCCCCCCc1cc1=O [OCPO, 1-octylcycloprop-1-en-2-one]
protection against ethylene-induced epinasty, visual rating on a scale of 0 to 10 (10 = complete protection, 0 = no protection): 7
